# B1: IL-4: a pleiotropic cytokine produced by activated T cells, mast cells, and basophils (protein, UniProt P05112 25-153, looked up)
# Interleukin-4: HKCDITLQEIIKTLNSLTEQKTLCTELTVTDIFAASKNTTEKETFCRAATVLRQFYSHHEKDTRCLGATAQQFHRHKQLIRFLKRLDRNLWGLAGLNSCPVKEANQSTLENFLERLKTIMREKYSKCSS
# Columns and labels:
# [1] = intranasal, relative to hydrocortisone; cited from earlier work
# [2] = relative to progesterone; cited from earlier work
# [3] = system: SEQ ID NO:37 expression in PBMCs; assay: Microarray analysis of SEQ ID NO:37 expression in cytokine-treated versus untreated PBMCs; format: cell-based, human; settings: 10 ng/ml recombinant IL-4, 2 hours, pooled PBMCs of 6 healthy donors
# Description: Total RNA is isolated from tissue samples using the guanidinium thiocyanate method and poly(A)^+ RNA is purified using the oligo-(dT) cellulose method. Each poly(A)^+ RNA sample is reverse transcribed using MMLV reverse-transcriptase, 0.05 pg/μl oligo-(dT) primer (21mer), 1× first strand buffer, 0.03 units/μl RNase inhibitor, […], […], 500 μM dTTP, 40 μM dCTP, 40 μM dCTP-Cy3 (BDS) or dCTP-Cy5 (Amersham Biosciences). The reverse transcription reaction is performed in a […] containing 200 ng poly(A)^+ RNA with GEMBRIGHT kits (Incyte). Specific control poly(A)^+ RNAs are synthesized by in vitro transcription from non-coding yeast genomic DNA. […]
# Sequences of the present invention are used to generate array elements. […] Array elements are amplified in thirty cycles of PCR from an initial quantity of 1-2 ng to a final quantity greater than 5 μg. […]
# Reporter-labeled hybridization complexes are detected with a microscope equipped with an Innova 70 mixed gas 10 W laser (Coherent, Inc., Santa Clara Calif.) capable of generating spectral lines at 488 nm for excitation of Cy3 and at 632 nm for excitation of Cy5. […]
# A grid is superimposed over the fluorescence signal image such that the signal from each spot is centered in each element of the grid. […]
molecule,measurement,setting,value
C[C@H]1C[C@H]2[C@@H]3CCC4=CC(=O)C=C[C@]4(C)[C@@]3(Cl)[C@@H](O)C[C@]2(C)[C@@]1(O)C(=O)CO [beclomethasone],anti-inflammatory and vasoconstrictive effects greater than those produced by hydrocortisone,[1],5000 times
6α-methyl-17-hydroxyprogesterone [medroxyprogesterone],pharmacological activity greater than progesterone,[2],about 15 times
B1,expression of SEQ ID NO:37 increased in comparison to untreated PBMCs,[3],at least 2 fold

# Reference: patent US20070009886A1, “Carbohydrate-associated proteins” (Incyte Corporation, priority 2002, published 2007)
